Values of other authors as cited in US20190090531A1, “TOBACCO FILLING FOR NON-COMBUSTION-TYPE HEATING SMOKING ARTICLE” (JAPAN TOBACCO INC., priority 2016, published 2019).
Like-named read-outs stand apart in the source and are kept apart here.

[1] = Table 1, in water at normal temperature (25° C.)

| Structure (SMILES) | Acid dissociation constant pKa1 [1] | Acid dissociation constant pKa1 (Table 2, in water at 25° C.) |
| --- | --- | --- |
| CC(=O)CCC(=O)O [Levulinic acid] | 4.44 |  |
| O=C1O[C@H]([C@H](O)CO)C(O)=C1O [Isoascorbic acid] | 4.13 | 4.13 |
| CCCCCCCCCCCCCCCCCCCCCCCC(=O)O [Lignoceric acid] | ≈5.00 | ≈5.00 |
| CCCCCCCCCCCCCCCCCCCCC(=O)O [Heneicosanoic acid] | ≈5.00 |  |
| CCCCCCCCCCCC(=O)O [Lauric acid] | 5.20 |  |
| CC/C=C\C/C=C\C/C=C\CCCCCCCC(=O)O [Linolenic acid] | ≈5.00 |  |
| CCCCCCCCCC(=O)O [Decanoic acid] | 4.90 |  |
| CCCCCCCCCCCCCC(=O)O [Myristic acid] | ≈5.00 |  |

The next lines start with the values.

| Acid dissociation constant pKa1 [1] | Acid dissociation constant pKa1 (Table 2, in water at 25° C.) | Structure (SMILES) |
| --- | --- | --- |
| ≈5.00 |  | CCCCCCCCCCCCCCCCCCCCCCCCCCCC(=O)O [Octacosanoic acid] |
| 2.50 |  | CC(=O)C(=O)O [Pyruvic acid] |
| 4.76 |  | C/C=C/C=C/C(=O)O [Sorbic acid] |
| ≈5.00 | ≈5.00 | CCCCCCCCCCCCCCCCCCC(=O)O [Nonadecanoic acid] |
| ≈5.00 |  | CCCCCCCCCCCCCCCCCC(=O)O [Stearic acid] |
| ≈5.00 |  | CCCCCCCCCCCCCCCC(=O)O [Palmitic acid] |
